From patent publication US6495525B1, “VLA-4 inhibitor: oMePUPA-V” (Biogen, Inc., priority 1998, dated 2002) come the findings set out here.

Broadly, the IC50 is the concentration that inhibits the measured activity by half.

The target in data set [1] is T1, VLA-4 (Homo sapiens, UniProt P05556+P13612). Put plainly: CS1 Cell Adhesion Assay, Jurkat cells to CS1/BSA conjugate. The class given is cell-based. More on the design: endogenous in cells; host or cells: Jurkat (human T cell line). As to the method:
The peptide NH2-cysteine-tyrosine-CS-1 was synthesized and coupled to BSA-SMCC (SMCC is a heterobifunctional crosslinker which reacts with free amino groups on BSA and the sole cysteine of the synthetic peptide) at a CS1/BSA ratio of 10:1. Wells were coated overnight with 100 μL of conjugate diluted to a final concentration of 1 ug/ml. The next day the wells were blocked with BSA in PBS for one hour and then washed three times.
The human T cell line, Jurkat, was labeled with 2 μM BCECF-AM, a fluorescent dye (2′, 7′, bis-(2-carboxyethyl)-5 and -6) carboxy fluorescein acetoxymethyl ester (Molecular Probes Inc., Eugene, Oregon; catalog #B-1150) that is internalized and deesterified thus trapping the dye within live cells. Jurkat cells (1×10^5 cells/well) in buffer containing 1 mM Mn^+2 were added to the coated plates in the presence of three-fold serial dilutions of inhibitor. Each concentration was assayed in duplicate. After 30 minutes at room temperature, the plates were inverted and washed three times or until no cells were adherent to control wells coated with BSA alone. CS1-adherent cells were quantitated in a Cytofluor fluorescent platereader using an excitation wavelength of 485 nm and an emission wavelength of 530 nm.
Cells adhered to CS1/BSA in the absence of compound served as the 0% inhibition control whereas cells adhering to BSA alone served as the 100% inhibition control. IC50's were calculated using Deltagraph software, version 5.

Data set [2] is described as follows: Proteolytic stability, in vitro metabolism and in vivo PK studies. The class given is in vitro ADME. Conditions: in vitro metabolism studies and in vivo PK studies in rat, dog and sheep.
The target of data set [3] is T1, VLA-4. Put plainly: Competition / dissociation assay with 3H-known inhibitor on Jurkat cells. In kind it is binding. Also on record: endogenous in cells; host or cells: Jurkat (human T cell line). The following applies: Mn+2-activated VLA-4. As to the method: Jurkat cells were maintained in RPMI-1640 medium plus 10% fetal bovine serum at 37° C. in a tissue culture incubator. For binding studies, the cells were pelleted by centrifugation, washed two times with TBS (50 mM Tris HCl, 150 mM NaCl, 0.1% bovine serum albumin, 2 mM glucose, 10 mM HEPES pH 7.4), suspended at approximately 2×10^6 cells/ml in TBS, and counted using a Neubauer hemocytometer. The cells were further diluted to 1.5×10^6/ml in the buffers indicated and subjected to the specific treatments defined for each experiment. The cells were then pelleted by centrifugation, resuspended in 100 μl of assay buffer, and transferred to a scintillation vial containing 2.9 ml of ScintiVerse II (Fisher Scientific). Cell-associated radioactivity was quantified by scintillation counting. Counts bound under these conditions measures integrin that is not occupied by the test compound and is therefore free to bind the ^3H-known inhibitor. […] Specific counts bound were calculated by subtracting non-specific counts from total counts bound.
A series of competition studies were performed to verify that oMePUPA-V and the known inhibitor compete for the same site on VLA-4. […] Third, Mn^+2-activated Jurkat cells were treated with saturating amounts of oMePUPA-V, and the rate at which the oMePUPA-V dissociated was measured. […]

Data set [4] relates to mouse contact hypersensitivity. Description: DNFB contact hypersensitivity model, ear swelling. Conditions: 0.03 or 0.3 mg/kg enterally 4 hours after DNFB challenge, measured 24 hours after challenge. In kind it is in vivo, mice. On the procedure: Twenty gram female virus-free Balb/c mice (Jackson Laboratories, Bar Harbor, Me.) housed four to a cage in microisolator cages in Biogen's virus-free animal facility and receiving ad libitum mouse chow and tap water were used for all studies. Mice were anesthetized with ketamine:xylazine (90:10 mg/kg, i.p.). A 3 cm^2 patch of abdominal skin, xiphoid to pubis was exposed by closely shaving the far and the skin was scrubbed with 70% ethanol. A 25 μL volume of 0.5% DNFB in 4:1 v/v acetone:olive oil vehicle is uniformly applied to the bare abdominal skin. The skin was lightly scratched with the applying pipette tip to encourage mild inflammation. […] Twenty four hours after challenge, mice were again anesthetized with ketamine:xylazine and the ear thickness of both ears measured with an engineer's micrometer to an accuracy of 10^−4 inches.
Compounds (100 μL) or appropriate vehicle (Dimethylsulfoxide [DMSO] in isotonic phosphate buffered saline [PBS], 100 μL) were administered orally by gavage 4 hours after challenging the immune response on Day 5. […] The ear swelling response for each mouse was calculated as the difference between its vehicle- and DNFB-challenged ear thickness at 24 hours after challenge. […] Inhibition of the ear swelling response was determined by comparison of treated groups with their vehicle control group. […] Values are expressed as means ± standard error of the mean (SEM).

Data set [5] is described as follows: Oral availability. The following applies: in vivo.

T1 sequence (P13612 34-1032): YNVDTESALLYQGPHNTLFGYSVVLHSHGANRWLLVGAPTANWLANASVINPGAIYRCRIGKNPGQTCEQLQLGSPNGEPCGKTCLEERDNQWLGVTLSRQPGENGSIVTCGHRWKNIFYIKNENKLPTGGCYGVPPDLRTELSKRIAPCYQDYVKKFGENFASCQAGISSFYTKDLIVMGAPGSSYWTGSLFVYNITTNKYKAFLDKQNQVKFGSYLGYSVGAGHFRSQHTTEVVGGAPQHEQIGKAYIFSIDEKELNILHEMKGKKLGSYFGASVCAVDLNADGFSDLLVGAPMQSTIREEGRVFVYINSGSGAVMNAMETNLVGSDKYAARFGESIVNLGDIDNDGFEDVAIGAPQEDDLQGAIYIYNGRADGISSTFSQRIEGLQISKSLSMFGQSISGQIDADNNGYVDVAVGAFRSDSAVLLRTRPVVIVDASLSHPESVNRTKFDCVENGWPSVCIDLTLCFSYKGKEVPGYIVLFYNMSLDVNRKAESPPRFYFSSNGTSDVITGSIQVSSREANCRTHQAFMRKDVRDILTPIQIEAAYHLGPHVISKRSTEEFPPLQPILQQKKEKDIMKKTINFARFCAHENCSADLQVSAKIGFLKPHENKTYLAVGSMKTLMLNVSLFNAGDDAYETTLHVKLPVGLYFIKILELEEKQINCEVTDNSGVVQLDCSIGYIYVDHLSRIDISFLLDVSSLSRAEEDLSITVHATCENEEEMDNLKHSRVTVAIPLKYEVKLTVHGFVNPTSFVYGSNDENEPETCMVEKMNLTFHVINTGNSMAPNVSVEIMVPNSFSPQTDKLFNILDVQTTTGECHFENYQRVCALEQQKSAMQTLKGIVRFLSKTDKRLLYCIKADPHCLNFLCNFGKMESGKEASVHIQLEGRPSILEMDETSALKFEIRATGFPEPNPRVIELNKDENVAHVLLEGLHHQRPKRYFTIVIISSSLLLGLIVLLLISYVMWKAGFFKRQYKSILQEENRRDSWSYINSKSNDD
T1 sequence (P05556 21-798): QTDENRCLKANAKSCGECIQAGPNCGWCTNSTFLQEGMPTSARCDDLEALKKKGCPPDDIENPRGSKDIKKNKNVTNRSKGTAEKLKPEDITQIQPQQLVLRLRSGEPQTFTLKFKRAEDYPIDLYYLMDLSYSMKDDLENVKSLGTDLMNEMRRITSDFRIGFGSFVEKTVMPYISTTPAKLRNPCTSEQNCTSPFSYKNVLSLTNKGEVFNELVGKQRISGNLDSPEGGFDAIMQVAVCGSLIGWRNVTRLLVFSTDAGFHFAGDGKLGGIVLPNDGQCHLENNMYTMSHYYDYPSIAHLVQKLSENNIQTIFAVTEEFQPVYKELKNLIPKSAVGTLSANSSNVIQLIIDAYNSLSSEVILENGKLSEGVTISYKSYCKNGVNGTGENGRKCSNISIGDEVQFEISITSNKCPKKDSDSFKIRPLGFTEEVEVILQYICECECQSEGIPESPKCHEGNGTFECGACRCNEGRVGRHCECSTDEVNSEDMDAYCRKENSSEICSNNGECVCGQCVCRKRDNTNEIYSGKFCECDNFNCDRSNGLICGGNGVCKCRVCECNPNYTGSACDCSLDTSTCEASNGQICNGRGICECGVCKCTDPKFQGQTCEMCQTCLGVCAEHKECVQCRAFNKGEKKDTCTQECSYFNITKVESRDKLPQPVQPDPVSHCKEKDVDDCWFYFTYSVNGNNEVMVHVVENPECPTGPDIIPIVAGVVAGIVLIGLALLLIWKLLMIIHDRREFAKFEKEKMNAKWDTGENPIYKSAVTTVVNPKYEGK

`Cc1ccccc1NC(=O)Nc1ccc(CC(=O)N2CCC[C@H]2C(=O)N[C@H](C)CC(=O)O)cc1` [oMePUPA-V]: in data set [1] (1 mM MnCl2, read-out: IC50 ± SD, Jurkat cell CS1 adhesion), the IC50 stood at 22 nM. The “blocking of Jurkat cell adhesion to CS1 (in words)” value in data set [1] (in the presence of Mn+2) is recorded as “completely block”. Moreover, the proteolytic stability entry in data set [2] is listed as “proteolytically stable”. In data set [3], the “concentration needed to compete 3H-known inhibitor binding, relative to cold known inhibitor” value was found to be 10 fold. Further, the “inhibition of ear swelling response (in words)” value in data set [4] is given as “significantly inhibited”. Besides, in data set [5], the Oral availability is on record as under 1%.
